ChEMBL document CHEMBL1125058 (J Med Chem, 1990)

Columns and labels:
[1] = target: T1, Aromatase (Homo sapiens, UniProt P11511)
T1 sequence (P11511 whole entry): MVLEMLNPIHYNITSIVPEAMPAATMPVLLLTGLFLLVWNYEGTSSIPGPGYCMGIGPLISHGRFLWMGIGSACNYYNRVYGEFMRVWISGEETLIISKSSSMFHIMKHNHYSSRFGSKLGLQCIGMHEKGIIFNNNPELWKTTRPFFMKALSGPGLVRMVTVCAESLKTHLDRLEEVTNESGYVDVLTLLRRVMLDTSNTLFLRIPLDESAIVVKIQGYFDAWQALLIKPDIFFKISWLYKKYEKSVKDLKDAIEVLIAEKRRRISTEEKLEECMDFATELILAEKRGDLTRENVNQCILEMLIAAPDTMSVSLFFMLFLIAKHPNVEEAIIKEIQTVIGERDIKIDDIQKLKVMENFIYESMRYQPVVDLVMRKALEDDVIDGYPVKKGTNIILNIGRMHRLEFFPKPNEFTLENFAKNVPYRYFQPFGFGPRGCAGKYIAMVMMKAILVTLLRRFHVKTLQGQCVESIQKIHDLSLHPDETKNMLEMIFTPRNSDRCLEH
Description: Inhibition of Cytochrome P450 19A1 in human placenta

[2] = Compound was evaluated for the spectral dissociation constant; format: ADME; details: read-out: Ks

| IC50 [1] | Kd [2] | SMILES |
| --- | --- | --- |
| 2500 nM |  | CCCCC[C@]1(c2ccncc2)CCC(=O)NC1=O |
| 3600 nM |  | CCCCCC[C@]1(c2ccncc2)CCC(=O)NC1=O |
|  | 510 nM | CCCCCCCCN1C(=O)CCC(CC)(c2ccncc2)C1=O (centres undefined) |
| 3200 nM |  | CCCCCCC[C@]1(c2ccncc2)CCC(=O)NC1=O |
